Reference: patent US10537558B2 (Bantam Pharmaceutical, LLC, priority 2015, dated 2020)

test system: BJAB cells; assay: BJAB cell proliferation (Cell Titer Glo); type: cell-based; conditions: not given
Method in brief: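 EC50 values come from non-linear regression of luminescence (Cell Titer Glo), expressed relative to untreated wells. BJAB cells were incubated roughly 72 h at 37 °C with serial compound dilutions carrying 0.1% final DMSO.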

| SMILES | EC50 |
| --- | --- |
| Cc1nn(-c2nc(-c3ccc(C#N)cc3)c(SC(C)C)s2)c(C(=O)O)c1-c1cccc(F)c1 [Compound 213, 1-(4-(4-cyanophenyl)-5-(isopropylthio)thiazol-2-yl)-4-(3-fluorophenyl)-3-methyl-1H-pyrazole-5-carboxylic acid] | C- |

same assay, conditions: Homo sapiens, read-out: EC50

| SMILES | EC50 [µM] |
| --- | --- |
| Cc1cc(-c2c(C)nn(-c3nc(-c4ccccc4C)c(SC(C)C)s3)c2C(=O)O)cc(C)n1 [Compound 42, 4-(2,6-dimethylpyridin-4-yl)-1-(5-(isopropylthio)-4-o-tolylthiazol-2-yl)-3-methyl-1H-pyrazole-5-carboxylic acid] | 1 to 5 |
| Cc1nn(-c2nc(-c3ccc(Cl)c(Cl)c3)c(SC(C)C)s2)c(C(=O)O)c1-c1cccc(CO)c1 [Compound 46, 1-(4-(3,4-dichlorophenyl)-5-(isopropylthio)thiazol-2-yl)-4-(3-(hydroxymethyl)phenyl)-3-methyl-1H-pyrazole-5-carboxylic acid] | 10 to 25 |
| Cc1cc(-c2nc(-n3nc(C)c(-c4cccc(F)c4)c3C(=O)O)sc2SC(C)C)ccc1C#N [Compound 226, 1-(4-(4-cyano-3-methylphenyl)-5-(isopropylthio)thiazol-2-yl)-4-(3-fluorophenyl)-3-methyl-1H-pyrazole-5-carboxylic acid] | 5 to 10 |
| Cc1nn(-c2nc(-c3cccc(F)c3)c(SC(C)C)s2)c(C(=O)O)c1-c1cccc2[nH]ccc12 [Compound 169, 1-(4-(3-fluorophenyl)-5-(isopropylthio)thiazol-2-yl)-4-(1H-indol-4-yl)-3-methyl-1H-pyrazole-5-carboxylic acid] | > 25 |
| Cc1ccccc1-c1c(C)nn(-c2nc(-c3ccc(Cl)c(Cl)c3)c(SC(C)C)s2)c1C(=O)N1CCC(CN)CC1 [Compound 131, (4-(aminomethyl)piperidin-1-yl)(1-(4-(3,4-dichlorophenyl)-5-(isopropylthio)thiazol-2-yl)-3-methyl-4-o-tolyl-1H-pyrazol-5-yl)methanone] | 1 to 5 |
| Cc1nn(-c2nc(-c3ccc4nccn4c3)c(SC(C)C)s2)c(C(=O)O)c1-c1cc(Cl)cc(Cl)c1 [Compound 31, 4-(3,5-dichlorophenyl)-1-(4-(imidazo[1,2-a]pyridin-6-yl)-5-(isopropylthio)thiazol-2-yl)-3-methyl-1H-pyrazole-5-carboxylic acid] | > 25 |
| Cc1nn(-c2nc(-c3ccc(Cl)c(Cl)c3)c(SC(C)C)s2)c(C(=O)O)c1-c1ccn(C)c(=O)c1 [Compound 93, 1-(4-(3,4-dichlorophenyl)-5-(isopropylthio)thiazol-2-yl)-3-methyl-4-(1-methyl-2-oxo-1,2-dihydropyridin-4-yl)-1H-pyrazole-5-carboxylic acid] | > 25 |
| Cc1cc(-c2c(C)nn(-c3nc(-c4ccc(Cl)c(Cl)c4)c(SC(C)C)s3)c2C(=O)O)cc(O[C@@H]2CCOC2)n1 [Compound 180, (R)-1-(4-(3,4-dichlorophenyl)-5-(isopropylthio)thiazol-2-yl)-3-methyl-4-(2-methyl-6-((tetrahydrofuran-3-yl)oxy)pyridin-4-yl)-1H-pyrazole-5-carboxylic Acid] | 10 to 25 |
| Cc1cc(-c2c(C)nn(-c3nc(-c4ccc(C(F)(F)F)cc4)c(SC(C)C)s3)c2C(=O)O)cc(C)n1 [Compound 196, 4-(2,6-dimethylpyridin-4-yl)-1-(5-(isopropylthio)-4-(4-(trifluoromethyl)phenyl)thiazol-2-yl)-3-methyl-1H-pyrazole-5-carboxylic Acid] | 1 to 5 |
| Cc1cc(-c2c(C)nn(-c3nc(-c4ccc(Cl)c(Cl)c4)c(SC(C)C)s3)c2C(=O)O)n(C)n1 [Compound 71, 2′-(4-(3,4-dichlorophenyl)-5-(isopropylthio)thiazol-2-yl)-2,5,5′-trimethyl-3,4′-bi(2H-pyrazole)-3′-carboxylic Acid] | 10 to 25 |
| Cc1cc(-c2c(C)nn(-c3nc(Cc4ccccc4)c(SC(C)C)s3)c2C(=O)O)cc(C)n1 [Compound 163, 1-(4-benzyl-5-(isopropylthio)thiazol-2-yl)-4-(2,6-dimethylpyridin-4-yl)-3-methyl-1H-pyrazole-5-carboxylic acid] | 10 to 25 |
| CCC(C)Sc1sc(-n2nc(C)c(-c3cc(C)nc(C)c3)c2C(=O)OC)nc1-c1ccc(Cl)c(Cl)c1 (stereo not shown) [Compound 33a] | > 25 |
| COCCNC(=O)c1c(-c2cccc(C)c2)c(C)nn1-c1nc(-c2ccc(Cl)c(Cl)c2)c(SC(C)C)s1 [Compound 130, 1-(4-(3,4-dichlorophenyl)-5-(isopropylthio)thiazol-2-yl)-N-(2-methoxyethyl)-3-methyl-4-m-tolyl-1H-pyrazole-5-carboxamide] | > 50 |
| Cc1nn(-c2nc(-c3ccc(Cl)c(Cl)c3)c(SC(C)C)s2)c(C(=O)O)c1-c1cccc([N+](=O)[O-])c1 [Compound 108, 1-(4-(3,4-dichlorophenyl)-5-(isopropylthio)thiazol-2-yl)-3-methyl-4-(3-nitrophenyl)-1H-pyrazole-5-carboxylic Acid] | 5 to 10 |
| Cc1nn(-c2nc(-c3ccc(Cl)c(Cl)c3)c(SC(C)C)s2)c(C(=O)O)c1-c1cc(O)cc(F)c1 [Compound 152, 1-(4-(3,4-dichlorophenyl)-5-(isopropylthio)thiazol-2-yl)-4-(3-fluoro-5-hydroxyphenyl)-3-methyl-1H-pyrazole-5-carboxylic Acid] | 5 to 10 |
| Cc1nn(-c2nc(-c3ccc(Cl)c(Cl)c3)c(SC(C)C)s2)c(C(=O)O)c1Cc1ccccc1NS(C)(=O)=O [Compound 121, 1-(4-(3,4-dichlorophenyl)-5-(isopropylthio)thiazol-2-yl)-3-methyl-4-(2-(methylsulfonamido)benzyl)-1H-pyrazole-5-carboxylic acid] | > 50 |
| CCSc1sc(-n2nc(C)c(Cc3ccccc3[N+](=O)[O-])c2C(=O)OC)nc1-c1ccc(Cl)c(Cl)c1 [Compound 3, methyl 1-(4-(3,4-dichlorophenyl)-5-(ethylthio)thiazol-2-yl)-3-methyl-4-(2-nitrobenzyl)-1H-pyrazole-5-carboxylate] | > 80 |
| COCCOc1cc(-c2c(C)nn(-c3nc(-c4ccc(Cl)c(Cl)c4)c(SC(C)C)s3)c2C(=O)O)cc(C)n1 [Compound 181, 1-(4-(3,4-dichlorophenyl)-5-(isopropylthio)thiazol-2-yl)-4-(2-(2-methoxyethoxy)-6-methylpyridin-4-yl)-3-methyl-1H-pyrazole-5-carboxylic Acid] | 10 to 25 |
| COc1cc(F)cc(-c2c(C)nn(-c3nc(-c4ccc(Cl)c(Cl)c4)c(SC(C)C)s3)c2C(=O)O)c1 [Compound 164, 1-(4-(3,4-dichlorophenyl)-5-(isopropylthio)thiazol-2-yl)-4-(3-fluoro-5-methoxyphenyl)-3-methyl-1H-pyrazole-5-carboxylic Acid] | 1 to 5 |
| Cc1cc(Cl)cc(-c2c(C)nn(-c3nc(-c4ccc(Cl)c(Cl)c4)c(SC(C)C)s3)c2C(=O)O)c1 [Compound 147, 4-(3-chloro-5-methylphenyl)-1-(4-(3,4-dichlorophenyl)-5-(isopropylthio)thiazol-2-yl)-3-methyl-1H-pyrazole-5-carboxylic Acid] | < 1 |
| Cc1nn(-c2nc(-c3coc4ccccc34)c(SC(C)C)s2)c(C(=O)O)c1-c1cccc(F)c1 [Compound 234, 1-(4-(benzofuran-3-yl)-5-(isopropylthio)thiazol-2-yl)-4-(3-fluorophenyl)-3-methyl-1H-pyrazole-5-carboxylic Acid] | > 40 |
| Cc1cc(-c2c(C)nn(-c3nc(-c4ccc(Cl)c(Cl)c4)c(SC(C)C)s3)c2C(=O)O)cc(N2CCOCC2)n1 [Compound 102, 1-(4-(3,4-dichlorophenyl)-5-(isopropylthio)thiazol-2-yl)-3-methyl-4-(2-methyl-6-morpholinopyridin-4-yl)-1H-pyrazole-5-carboxylic Acid] | 5 to 10 |
| Cc1ccc(-c2nc(-n3nc(C)c(-c4cccc(F)c4)c3C(=O)O)sc2SC(C)C)cc1F [Compound 214, 1-(4-(3-fluoro-4-methylphenyl)-5-(isopropylthio)thiazol-2-yl)-4-(3-fluorophenyl)-3-methyl-1H-pyrazole-5-carboxylic acid] | 1 to 5 |
| CC(C)Sc1sc(-n2cccn2)nc1-c1ccc(Cl)c(Cl)c1 [Compound 156, 4-(3,4-dichlorophenyl)-5-(isopropylthio)-2-(1H-pyrazol-1-yl)thiazole] | > 25 |
| Cc1nn(-c2nc(-c3ccc(C(F)(F)F)nc3)c(SC(C)C)s2)c(C(=O)O)c1-c1cccc(F)c1 [Compound 258, 4-(3-fluorophenyl)-1-(5-(isopropylthio)-4-(6-(trifluoromethyl)pyridin-3-yl)thiazol-2-yl)-3-methyl-1H-pyrazole-5-carboxylic acid] | 1 to 5 |
| Cc1ccc(-c2nc(-n3nc(C)c(-c4cc(C)nc(C)c4)c3C(=O)O)sc2SC(C)C)cc1 [Compound 40, 4-(2,6-dimethylpyridin-4-yl)-1-(5-(isopropylthio)-4-p-tolylthiazol-2-yl)-3-methyl-1H-pyrazole-5-carboxylic acid] | 1 to 5 |
| Cc1nn(-c2nc(-c3cncc(F)c3)c(SC(C)C)s2)c(C(=O)O)c1-c1cccc(F)c1 [Compound 233, 4-(3-fluorophenyl)-1-(4-(5-fluoropyridin-3-yl)-5-(isopropylthio)thiazol-2-yl)-3-methyl-1H-pyrazole-5-carboxylic Acid] | > 40 |
| Cc1cc(-c2c(C)nn(-c3nc(-c4cc(F)c(Cl)c(F)c4)c(SC(C)C)s3)c2C(=O)O)cc(C)n1 [Compound 192, 1-(4-(4-chloro-3,5-difluorophenyl)-5-(isopropylthio)thiazol-2-yl)-4-(2,6-dimethylpyridin-4-yl)-3-methyl-1H-pyrazole-5-carboxylic Acid] | 1 to 5 |
| CC(=O)Nc1ccc(-c2c(C)nn(-c3nc(-c4ccc(Cl)c(Cl)c4)c(SC(C)C)s3)c2C(=O)O)cc1 [Compound 120, 4-(4-acetamidophenyl)-1-(4-(3,4-dichlorophenyl)-5-(isopropylthio)thiazol-2-yl)-3-methyl-1H-pyrazole-5-carboxylic acid] | > 50 |
| Cc1nn(-c2nc(-c3ccc(Cl)c(Cl)c3)c(SC(C)C)s2)c(C(=O)O)c1-c1cc(Cl)cc(OC(C)C)c1 [Compound 174, 4-(3-chloro-5-isopropoxyphenyl)-1-(4-(3,4-dichlorophenyl)-5-(isopropylthio)thiazol-2-yl)-3-methyl-1H-pyrazole-5-carboxylic Acid] | 1 to 5 |
